In patent US8883782B2, “Spiro-tetracyclic ring compounds as beta-secretase modulators and methods of use” (Amgen Inc., priority 2010, dated 2014):

Legend:
[1] = target: Beta Secretase enzyme (BACE) (Homo sapiens, UniProt P56817); test: In vitro enzymatic BACE FRET (fluorescence resonance energy transfer) assay; format: biochemical; conditions: average IC50, enzyme assay; read-out: BACE 1 FRET assay
In short: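 Buffer 0.05 M acetate pH 4.2, 10% DMSO final, 100 uM genapol (sub-CMC); start with 50 nM FRET substrate; 1 h incubation; Tris stop; fluorescence read.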

[2] = system: Aβ40 in conditioned medium of cells stably expressing Amyloid Precursor Protein (APP); test: In vitro BACE cell-based assay (Aβ40 in conditioned medium, sandwich ELISA); conditions: Homo sapiens, HEK293, average IC50, HEK cells; read-out: HEK cell assay
In short: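 The sandwich ELISA pairs pAb40 capture (3 h, 4 °C) with 6E10 detection (2 h, 4 °C) and a streptavidin-europium TRF read-out. Supernatants come from APP-expressing cells grown in 10% FBS DMEM.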

Beta Secretase enzyme (BACE), sequence (P56817 46-501, species assumed): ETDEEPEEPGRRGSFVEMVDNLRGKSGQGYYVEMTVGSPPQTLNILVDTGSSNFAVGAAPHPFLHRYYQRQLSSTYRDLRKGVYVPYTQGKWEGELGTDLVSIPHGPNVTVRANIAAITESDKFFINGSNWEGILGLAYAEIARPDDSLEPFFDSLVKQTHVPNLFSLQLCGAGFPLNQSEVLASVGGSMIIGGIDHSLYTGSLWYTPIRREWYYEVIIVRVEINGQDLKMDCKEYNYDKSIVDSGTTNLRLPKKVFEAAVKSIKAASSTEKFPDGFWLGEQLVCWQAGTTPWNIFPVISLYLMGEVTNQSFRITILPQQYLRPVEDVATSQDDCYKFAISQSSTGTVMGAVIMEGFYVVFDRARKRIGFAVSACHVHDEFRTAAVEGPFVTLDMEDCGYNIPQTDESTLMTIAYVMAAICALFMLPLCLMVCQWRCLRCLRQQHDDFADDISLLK

| SMILES | IC50 [1] | IC50 [2] |
| --- | --- | --- |
| CC(C)(C#N)COc1cc(F)c2c(c1)[C@@]1(COC(N)=N1)c1cc(-c3cccnc3F)c(F)cc1O2 [Example 863, 3-(((4R)-2-amino-4′,6′-difluoro-7′-(2-fluoro-3-pyridinyl)spiro[1,3-oxazole-4,9′-xanthen]-2′-yl)oxy)-2,2-dimethylpropanenitrile] | 80.1 nM | 2360 nM |
| NC1=N[C@@]2(CO1)c1cc(-c3cccnc3)c(F)cc1Oc1c(F)cc(C3CCOCC3)cc12 [Example 864, (4S)-3′,5′-difluoro-2′-(3-pyridinyl)-7′-(tetrahydro-2H-pyran-4-yl)spiro[1,3-oxazole-4,9′-xanthen]-2-amine] | 1.1 nM | 30 nM |
| NC1=N[C@@]2(CO1)c1cc(-c3cccnc3F)c(F)cc1Oc1c(F)cc(C3=CCCOC3)cc12 [Example 865, (4S)-7′-(5,6-dihydro-2H-pyran-3-yl)-3′,5′-difluoro-2′-(2-fluoro-3-pyridinyl)spiro[1,3-oxazole-4,9′-xanthen]-2-amine] | 0.3 nM | 5 nM |
| NC1=N[C@]2(CO1)c1cc(-c3cccnc3F)c(F)cc1Oc1c(F)cc(C3=CCCOC3)cc12 [Example 866, (4R)-7′-(5,6-dihydro-2H-pyran-3-yl)-3′,5′-difluoro-2′-(2-fluoro-3-pyridinyl)spiro[1,3-oxazole-4,9′-xanthen]-2-amine] | 62.3 nM | 1720 nM |
| NC1=N[C@]2(CO1)c1cc(-c3cccnc3F)c(F)cc1Oc1c(F)cc(C3=CCOCC3)cc12 [Example 868, (4R)-7′-(3,6-dihydro-2H-pyran-4-yl)-3′,5′-difluoro-2′-(2-fluoro-3-pyridinyl)spiro[1,3-oxazole-4,9′-xanthen]-2-amine] | 52.1 nM | 1130 nM |
| NC1=N[C@]2(CO1)c1cc(-c3cccnc3F)c(F)cc1Oc1c(F)cc(N3CCOCC3)cc12 [Example 870, (4R)-3′,5′-difluoro-2′-(2-fluoro-3-pyridinyl)-7′-(4-morpholinyl)spiro[1,3-oxazole-4,9′-xanthen]-2-amine] | 157 nM | 6570 nM |
| NC1=N[C@]2(CO1)c1cc(-c3cccnc3F)c(F)cc1Oc1c(F)cc(C3CCOCC3)cc12 [Example 871, (4R)-3′,5′-difluoro-2′-(2-fluoro-3-pyridinyl)-7′-(tetrahydro-2H-pyran-4-yl)spiro[1,3-oxazole-4,9′-xanthen]-2-amine] | 179 nM | 6470 nM |
| NC1=N[C@@]2(CO1)c1cc(-c3cccnc3F)c(F)cc1Oc1c(F)cc(C3CCOCC3)cc12 [Example 872, (4S)-3′,5′-difluoro-2′-(2-fluoro-3-pyridinyl)-7′-(tetrahydro-2H-pyran-4-yl)spiro[1,3-oxazole-4,9′-xanthen]-2-amine] | 0.6 nM | 15 nM |
| NC1=N[C@@]2(CS1)c1cc(-c3cncnc3)c(F)cc1Oc1c(F)cc(C3=CCCOC3)cc12 [Example 873, (4S)-7′-(5,6-dihydro-2H-pyran-3-yl)-3′,5′-difluoro-2′-(5-pyrimidinyl)spiro[1,3-thiazole-4,9′-xanthen]-2-amine] | 0.3 nM | 7 nM |
| NC1=N[C@]2(CS1)c1cc(-c3cncnc3)c(F)cc1Oc1c(F)cc(C3=CCCOC3)cc12 [Example 874, (4R)-7′-(5,6-dihydro-2H-pyran-3-yl)-3′,5′-difluoro-2′-(5-pyrimidinyl)spiro[1,3-thiazole-4,9′-xanthen]-2-amine] | 32.5 nM | 506 nM |
| CC1(COc2cc(F)c3c(c2)[C@]2(CSC(N)=N2)c2cc(-c4cncnc4)c(F)cc2O3)COC1 [Example 875, (4S)-3′,5′-difluoro-7′-((3-methyl-3-oxetanyl)methoxy)-2′-(5-pyrimidinyl)spiro[1,3-thiazole-4,9′-xanthen]-2-amine] | 0.5 nM | 8 nM |
| CC1(COc2cc(F)c3c(c2)[C@@]2(CSC(N)=N2)c2cc(-c4cncnc4)c(F)cc2O3)COC1 [Example 876, (4R)-3′,5′-difluoro-7′-((3-methyl-3-oxetanyl)methoxy)-2′-(5-pyrimidinyl)spiro[1,3-thiazole-4,9′-xanthen]-2-amine] | 44.9 nM | 634 nM |
| CC1(COc2cc(F)c3c(c2)[C@@]2(CSC(N)=N2)c2cc(-c4cccnc4)c(F)cc2O3)COC1 [Example 877, (4R)-3′,5′-difluoro-7′-((3-methyl-3-oxetanyl)methoxy)-2′-(3-pyridinyl)spiro[1,3-thiazole-4,9′-xanthen]-2-amine] | 183 nM | 3000 nM |
| CC1(COc2cc(F)c3c(c2)[C@]2(CSC(N)=N2)c2cc(-c4cccnc4)c(F)cc2O3)COC1 [Example 878, (4S)-3′,5′-difluoro-7′-((3-methyl-3-oxetanyl)methoxy)-2′-(3-pyridinyl)spiro[1,3-thiazole-4,9′-xanthen]-2-amine] | 0.4 nM | 8 nM |
| NC1=N[C@@]2(CS1)c1cc(-c3cccnc3F)c(F)cc1Oc1c(F)cc(N3CCOCC3)cc12 [Example 879, (4S)-3′,5′-difluoro-2′-(2-fluoro-3-pyridinyl)-7′-(4-morpholinyl)spiro[1,3-thiazole-4,9′-xanthen]-2-amine] | 0.3 nM | 11 nM |
| NC1=N[C@]2(CS1)c1cc(-c3cccnc3F)c(F)cc1Oc1c(F)cc(N3CCOCC3)cc12 [Example 880, (4R)-3′,5′-difluoro-2′-(2-fluoro-3-pyridinyl)-7′-(4-morpholinyl)spiro[1,3-thiazole-4,9′-xanthen]-2-amine] | 1230 nM | ≥ 10000 nM |
| NC1=N[C@@]2(CS1)c1cc(-c3cccnc3)c(F)cc1Oc1c(F)cc(C3=CCOCC3)cc12 [Example 881, (4S)-7′-(3,6-dihydro-2H-pyran-4-yl)-3′,5′-difluoro-2′-(3-pyridinyl)spiro[1,3-thiazole-4,9′-xanthen]-2-amine] | 0.5 nM | 23 nM |
| NC1=N[C@]2(CS1)c1cc(-c3cccnc3)c(F)cc1Oc1c(F)cc(C3=CCOCC3)cc12 [Example 882, (4R)-7′-(3,6-dihydro-2H-pyran-4-yl)-3′,5′-difluoro-2′-(3-pyridinyl)spiro[1,3-thiazole-4,9′-xanthen]-2-amine] | 617 nM | ≥ 10000 nM |
| NC1=N[C@@]2(CS1)c1cc(-c3cccnc3)c(F)cc1Oc1c(F)cc(C3=CCCOC3)cc12 [Example 883, (4S)-7′-(5,6-dihydro-2H-pyran-3-yl)-3′,5′-difluoro-2′-(3-pyridinyl)spiro[1,3-thiazole-4,9′-xanthen]-2-amine] | 0.3 nM | 50 nM |
| NC1=N[C@]2(CS1)c1cc(-c3cccnc3)c(F)cc1Oc1c(F)cc(C3=CCCOC3)cc12 [Example 884, (4R)-7′-(5,6-dihydro-2H-pyran-3-yl)-3′,5′-difluoro-2′-(3-pyridinyl)spiro[1,3-thiazole-4,9′-xanthen]-2-amine] | 162 nM | ≥ 10000 nM |
| CC1(COc2cc(F)c3c(c2)[C@]2(CSC(N)=N2)c2cc(-c4cccnc4F)c(F)cc2O3)COC1 [Example 885, (4S)-3′,5′-difluoro-2′-(2-fluoro-3-pyridinyl)-7′-((3-methyl-3-oxetanyl)methoxy)spiro[1,3-thiazole-4,9′-xanthen]-2-amine] | 0.4 nM | 5 nM |
| CC1(COc2cc(F)c3c(c2)[C@@]2(CSC(N)=N2)c2cc(-c4cccnc4F)c(F)cc2O3)COC1 [Example 886, (4R)-3′,5′-difluoro-2′-(2-fluoro-3-pyridinyl)-7′-((3-methyl-3-oxetanyl)methoxy)spiro[1,3-thiazole-4,9′-xanthen]-2-amine] | 475 nM | ≥ 10000 nM |
| NC1=N[C@]2(CS1)c1cc(-c3cncnc3)c(F)cc1Oc1c(F)cc(N3CCOCC3)cc12 [Example 887, (4R)-3′,5′-difluoro-7′-(4-morpholinyl)-2′-(5-pyrimidinyl)spiro[1,3-thiazole-4,9′-xanthen]-2-amine] | 4740 nM | ≥ 10000 nM |
| NC1=N[C@@]2(CS1)c1cc(-c3cncnc3)c(F)cc1Oc1c(F)cc(N3CCOCC3)cc12 [Example 888, (4S)-3′,5′-difluoro-7′-(4-morpholinyl)-2′-(5-pyrimidinyl)spiro[1,3-thiazole-4,9′-xanthen]-2-amine] | 2.1 nM | 10 nM |
| CN(C)c1cc2c(cn1)Oc1ccc(-c3cccnc3)cc1C21CSC(N)=N1 [Example 889, (5R)-N~3~,N~3~-dimethyl-7-(3-pyridinyl)spiro[chromeno[2,3-c]pyridine-5,4′-[1,3]thiazole]-2′,3-diamine, (5S)-N~3~,N~3~-dimethyl-7-(3-pyridinyl)spiro[chromeno[2,3-c]pyridine-5,4′-[1,3]thiazole]-2′,3-diamine] | 19.9 nM | 540 nM |
| NC1=N[C@@]2(CO1)c1cc(-c3cccnc3F)ccc1Oc1cnc(N3C[C@@H]4C[C@H]3CO4)cc12 [Example 891, (5S)-7-(2-fluoro-3-pyridinyl)-3-((1S,4S)-2-oxa-5-azabicyclo[2.2.1]hept-5-yl)spiro[chromeno[2,3-c]pyridine-5,4′-[1,3]oxazol]-2′-amine] | 1.9 nM | 61 nM |
| NC1=N[C@@]2(CO1)c1cc(-c3cccnc3F)ccc1Oc1c2cc(N2CCOCC2)nc1F [Example 892, (5S)-1-fluoro-7-(2-fluoro-3-pyridinyl)-3-(4-morpholinyl)spiro[chromeno[2,3-c]pyridine-5,4′-[1,3]oxazol]-2′-amine] | 0.3 nM | 5 nM |
| N#Cc1cccc(-c2ccc3c(c2)[C@@]2(COC(N)=N2)c2cc(N4CCOCC4)ncc2O3)c1 [Example 895, 3-((5S)-2′-amino-3-(4-morpholinyl)spiro[chromeno[2,3-c]pyridine-5,4′-[1,3]oxazol]-7-yl)benzonitrile] | 2.4 nM | 8 nM |
| NC1=N[C@@]2(CO1)c1cc(-c3cccnc3F)c(F)cc1Oc1ncc(-c3ccc(F)nc3)cc12 [Example 896, (5S)-8-fluoro-7-(2-fluoro-3-pyridinyl)-3-(6-fluoro-3-pyridinyl)spiro[chromeno[2,3-b]pyridine-5,4′-[1,3]oxazol]-2′-amine] | 2.4 nM | 74 nM |
